Measured values taken from patent US8802720B2, “Acylamino-substituted fused cyclopentanecarboxylic acid derivatives and their use as pharmaceuticals” (SANOFI, priority 2008, dated 2014).

target: human Edg-2 receptor (LPA1 receptor) (Homo sapiens, UniProt Q92633); experiment: Edg-2 receptor inhibition by FLIPR calcium fluorescence measurement (LPA-mediated calcium liberation); assay type: cell-based; conditions: CHO cells stably overexpressing human Edg-2 receptor; LPA 18:1 100 nM; fluo-4 fluorescence; triplicate; read-out: Inhibitory concentrations IC50 for inhibition of the Edg-2 receptor
How it was run: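 CHO cells stably overexpressing human Edg-2 were fluo-4 loaded and pre-incubated ~5 min with compound (≤0.3% DMSO) in HBSS/HEPES/probenecid, pH 7.5. Then LPA 18:1 at 100 nM final was added. Peak calcium fluorescence over ~3 min, baseline-corrected versus DMSO, gave % inhibition in triplicate and IC50.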

human Edg-2 receptor (LPA1 receptor), sequence (Q92633 whole entry): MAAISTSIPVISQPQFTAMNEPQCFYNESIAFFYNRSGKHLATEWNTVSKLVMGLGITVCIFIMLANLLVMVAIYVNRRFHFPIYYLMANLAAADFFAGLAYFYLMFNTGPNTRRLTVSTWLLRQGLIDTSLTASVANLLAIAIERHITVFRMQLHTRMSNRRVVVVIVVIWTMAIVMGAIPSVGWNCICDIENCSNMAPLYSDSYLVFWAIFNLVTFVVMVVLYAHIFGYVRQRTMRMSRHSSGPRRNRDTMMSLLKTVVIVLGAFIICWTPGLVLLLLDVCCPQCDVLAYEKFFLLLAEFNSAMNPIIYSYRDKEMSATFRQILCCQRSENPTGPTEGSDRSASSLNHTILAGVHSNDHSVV

Compound | IC50
COc1ncc(C(=O)NC2(C(=O)O)Cc3ccccc3C2)cc1-c1cccc(Cl)c1Cl [Example 228] | < 100 nM
COc1ncc(C(=O)NC2(C(=O)O)Cc3ccccc3C2)cc1-c1cc(F)c(F)c(F)c1 [Example 229] | < 100 nM
COc1ncc(C(=O)NC2(C(=O)O)Cc3ccccc3C2)cc1-c1cccc(C(F)(F)F)c1F [Example 230] | < 100 nM
COc1ncc(C(=O)NC2(C(=O)O)Cc3ccccc3C2)cc1-c1cccc(NS(=O)(=O)N(C)C)c1 [Example 231] | < 100 nM
CCSc1cccc(-c2cc(C(=O)NC3(C(=O)O)Cc4ccccc4C3)cnc2OC)c1 [Example 233] | < 100 nM
COc1ncc(C(=O)NC2(C(=O)O)Cc3ccccc3C2)cc1-c1cccc(OC(F)(F)F)c1 [Example 234] | < 100 nM
COc1ncc(C(=O)NC2(C(=O)O)Cc3ccccc3C2)cc1-c1cc(Cl)cc(C(F)(F)F)c1 [Example 235] | < 100 nM
COc1ncc(C(=O)NC2(C(=O)O)Cc3ccccc3C2)cc1-c1cccc(C#N)c1 [Example 236] | < 100 nM
CCS(=O)(=O)c1cccc(-c2cc(C(=O)NC3(C(=O)O)Cc4ccccc4C3)cnc2OC)c1 [Example 237, 2-{[5-(3-Ethanesulfonyl-phenyl)-6-methoxy-pyridine-3-carbonyl]-amino}-indane-2-carboxylic acid] | 100 to 1000 nM
COc1ccc(C(=O)NC2(C(=O)O)Cc3ccccc3C2)cc1Oc1ccccc1C [Example 238, 2-(4-Methoxy-3-o-tolyloxy-benzoylamino)-indane-2-carboxylic acid] | 100 to 1000 nM
COc1ccc(C(=O)NC2(C(=O)O)Cc3ccccc3C2)cc1Oc1cccc(C)c1 [Example 239, 2-(4-Methoxy-3-m-tolyloxy-benzoylamino)-indane-2-carboxylic acid] | 1000 to 30000 nM
COc1ccc(C(=O)NC2(C(=O)O)Cc3ccccc3C2)cc1C(=O)c1ccccc1C [Example 240, 2-[4-Methoxy-3-(2-methyl-benzoyl)-benzoylamino]-indane-2-carboxylic acid] | 1000 to 30000 nM
COc1ccc(C(=O)NC2(C(=O)O)Cc3ccccc3C2)cc1C(O)c1ccccc1C (stereo not shown) [Example 241, 2-[3-(Hydroxy-o-tolyl-methyl)-4-methoxy-benzoylamino]-indane-2-carboxylic acid] | 1000 to 30000 nM
COc1ccc(C(=O)NC2(C(=O)O)Cc3ccccc3C2)cc1Cc1ccccc1C [Example 242, 2-[4-Methoxy-3-(2-methyl-benzyl)-benzoylamino]-indane-2-carboxylic acid] | 100 to 1000 nM
COc1ccc(C(=O)NC2(C(=O)O)Cc3ccccc3C2)cc1Cc1ccccc1 [Example 243, 2-[4-Methoxy-3-benzyl-benzoylamino]-indane-2-carboxylic acid] | 1000 to 30000 nM
COc1ccc(C(=O)NC2(C(=O)O)Cc3ccccc3C2)cc1Cc1cccc(C)c1 [Example 244, 2-[4-Methoxy-3-(3-methyl-benzyl)-benzoylamino]-indane-2-carboxylic acid] | 100 to 1000 nM
COc1ccc(C(=O)NC2(C(=O)O)Cc3ccccc3C2)cc1Cc1ccc(C)cc1 [Example 245, 2-[4-Methoxy-3-(4-methyl-benzyl)-benzoylamino]-indane-2-carboxylic acid] | < 100 nM
COc1ccc(C(=O)NC2(C(=O)O)Cc3ccccc3C2)cc1OCCc1cccc(CCN)c1 [Example 246, 2-(3-{2-[3-(2-Amino-ethyl)-phenyl]-ethoxy}-4-methoxy-benzoylamino)-indane-2-carboxylic acid] | 1000 to 30000 nM
COc1ccc(C(=O)NC2(C(=O)O)Cc3ccccc3C2)cc1OCCc1cccc(CCNC(C)=O)c1 [Example 247, 2-(3-{2-[3-(2-Acetylamino-ethyl)-phenyl]-ethoxy}-4-methoxy-benzoylamino)-indane-2-carboxylic acid] | 100 to 1000 nM
COc1ccc(C(=O)NC2(C(=O)O)Cc3ccccc3C2)cc1OCCc1cccc(CC(N)=O)c1 [Example 248, 2-{3-[2-(3-Carbamoylmethyl-phenyl)-ethoxy]-4-methoxy-benzoylamino}-indane-2-carboxylic acid] | < 100 nM
COc1ccc(C(=O)NC2(C(=O)O)Cc3ccccc3C2)cc1OCCc1cccc(CC(C)(C)O)c1 [Example 249, 2-(3-{2-[3-(2-Hydroxy-2-methyl-propyl)-phenyl]-ethoxy}-4-methoxy-benzoylamino)-indane-2-carboxylic acid] | < 100 nM
COc1ccc(C(=O)NC2(C(=O)O)Cc3ccccc3C2)cc1OCC1(c2ccccc2)COC1 [Example 250, 2-[4-Methoxy-3-(3-phenyl-oxetan-3-ylmethoxy)-benzoylamino]-indane-2-carboxylic acid] | < 100 nM

Now from value to compound:

IC50 | Compound
1000 to 30000 nM | COc1ccc(C(=O)NC2(C(=O)O)Cc3ccccc3C2)cc1OCCc1cccc(O)c1 [Example 251, 2-{3-[2-(3-Hydroxy-phenyl)-ethoxy]-4-methoxy-benzoylamino}-indane-2-carboxylic acid]
100 to 1000 nM | COc1cc(C(=O)NC2(C(=O)O)Cc3ccccc3C2)ccc1OCCc1cccc(C)c1 [Example 252, 2-[3-Methoxy-4-(2-m-tolyl-ethoxy)-benzoylamino]-indane-2-carboxylic acid]
< 100 nM | Cc1cccc(CCOc2cc(C(=O)NC3(C(=O)O)Cc4ccccc4C3)ccc2OCc2ccccc2)c1 [Example 253, 2-[4-Benzyloxy-3-(2-m-tolyl-ethoxy)-benzoylamino]-indane-2-carboxylic acid]
1000 to 30000 nM | Cc1cccc(CCOc2cc(C(=O)NC3(C(=O)O)Cc4ccccc4C3)ccc2O)c1 [Example 254, 2-[4-Hydroxy-3-(2-m-tolyl-ethoxy)-benzoylamino]-indane-2-carboxylic acid]
< 100 nM | Cc1cccc(CCOc2cc(C(=O)NC3(C(=O)O)Cc4ccccc4C3)ccc2OC(C)C)c1 [Example 255, 2-[4-Isopropoxy-3-(2-m-tolyl-ethoxy)-benzoylamino]-indane-2-carboxylic acid]
< 100 nM | COCCOc1ccc(C(=O)NC2(C(=O)O)Cc3ccccc3C2)cc1OCCc1cccc(C)c1 [Example 256]
< 100 nM | Cc1cccc(CCOc2cc(C(=O)NC3(C(=O)O)Cc4ccccc4C3)ccc2OCC2CCCCC2)c1 [Example 257]
< 100 nM | Cc1cccc(CCOc2cc(C(=O)NC3(C(=O)O)Cc4ccccc4C3)ccc2OCC2CCOC2)c1 (stereo not shown) [Example 258]
< 100 nM | Cc1cccc(CCOc2cc(C(=O)NC3(C(=O)O)Cc4ccccc4C3)ccc2OCCOC(C)(C)C)c1 [Example 259]
100 to 1000 nM | Cc1cccc(CCOc2cc(C(=O)NC3(C(=O)O)Cc4ccccc4C3)ccc2OCCC(F)(F)F)c1 [Example 260]
100 to 1000 nM | Cc1cccc(CCOc2cc(C(=O)NC3(C(=O)O)Cc4ccccc4C3)ccc2OCCC(C)(C)C)c1 [Example 261]
< 100 nM | Cc1cccc(CCOc2cc(C(=O)NC3(C(=O)O)Cc4ccccc4C3)ccc2OCC2CCC2)c1 [Example 262]
< 100 nM | CCCCCOc1ccc(C(=O)NC2(C(=O)O)Cc3ccccc3C2)cc1OCCc1cccc(C)c1 [Example 263]
< 100 nM | Cc1cccc(CCOc2cc(C(=O)NC3(C(=O)O)Cc4ccccc4C3)ccc2OCC2CCCCO2)c1 (stereo not shown) [Example 264]
100 to 1000 nM | Cc1cccc(CCOc2cc(C(=O)NC3(C(=O)O)Cc4ccccc4C3)ccc2OCCN(C)C)c1 [Example 265]
< 100 nM | Cc1cccc(CCOc2cc(C(=O)NC3(C(=O)O)Cc4ccccc4C3)ccc2OCC2CC2)c1 [Example 266, 2-[4-cyclopropylmethoxy-3-(2-m-tolyl-ethoxy)-benzoylamino]-indane-2-carboxylic acid]
< 100 nM | CSCCOc1ccc(C(=O)NC2(C(=O)O)Cc3ccccc3C2)cc1OCCc1cccc(C)c1 [Example 267]
< 100 nM | Cc1cccc(CCOc2cc(C(=O)NC3(C(=O)O)Cc4ccccc4C3)ccc2OCCF)c1 [Example 268]
< 100 nM | C=CCOc1ccc(C(=O)NC2(C(=O)O)Cc3ccccc3C2)cc1OCCc1cccc(C)c1 [Example 269]
< 100 nM | Cc1cccc(CCOc2cc(C(=O)NC3(C(=O)O)Cc4ccccc4C3)ccc2OCCO)c1 [Example 270, 2-[4-(2-Hydroxy-ethoxy)-3-(2-m-tolyl-ethoxy)-benzoylamino]-indane-2-carboxylic acid]
100 to 1000 nM | Cc1cccc(CCOc2cc(C(=O)NC3(C(=O)O)Cc4ccccc4C3)ccc2OCC(=O)O)c1 [Example 271, 2-[4-Carboxymethoxy-3-(2-m-tolyl-ethoxy)-benzoylamino]-indane-2-carboxylic acid]
100 to 1000 nM | Cc1cccc(CCOc2cc(C(=O)NC3(C(=O)O)Cc4ccccc4C3)ccc2OC2CC2)c1 [Example 272, 2-[4-Cyclopropoxy-3-(2-m-tolyl-ethoxy)-benzoylamino]-indane-2-carboxylic acid]
100 to 1000 nM | CCc1sc(C(=O)NC2(C(=O)O)Cc3ccccc3C2)nc1OCCc1cccc(C)c1 [Example 273, 2-{[5-Ethyl-4-(2-m-tolyl-ethoxy)-thiazole-2-carbonyl]-amino}-indane-2-carboxylic acid]
< 100 nM | COc1ncc(C(=O)NC2(C(=O)O)Cc3ccccc3C2)cc1OCCc1cc(C)ccc1F [Example 274, 2-({5-[2-(2-Fluoro-5-methyl-phenyl)-ethoxy]-6-methoxy-pyridine-3-carbonyl}-amino)-indane-2-carboxylic acid]
< 100 nM | COc1ncc(C(=O)NC2(C(=O)O)Cc3ccccc3C2)cc1OCCc1cccc(CCO)c1 [Example 275, 2-[(5-{2-[3-(2-Hydroxy-ethyl)-phenyl]-ethoxy}-6-methoxy-pyridine-3-carbonyl)-amino]-indane-2-carboxylic acid]
< 100 nM | COc1c(F)cc(C(=O)NC2(C(=O)O)Cc3ccccc3C2)cc1OCCc1cccc(CCO)c1 [Example 276, 2-(3-Fluoro-5-{2-[3-(2-hydroxy-ethyl)-phenyl]-ethoxy}-4-methoxy-benzoylamino)-indane-2-carboxylic acid]
1000 to 30000 nM | COc1ccc(C(=O)NC2(C(=O)O)Cc3ccccc3C2)c(F)c1OCCc1cccc(C)c1 [Example 277, 2-[2-Fluoro-4-methoxy-3-(2-m-tolyl-ethoxy)-benzoylamino]-indane-2-carboxylic acid]
